This is an account of results in patent US20220204539A1, “CD73 INHIBITORS” (BioArdis LLC, priority 2019, published 2022).

A value given as a limit tells only on which side of the number the result lay.

Assay [1] concerns the target T1, Recombinant Human 5′-Nucleotidase (CD73) (Homo sapiens, UniProt P21589).
T1 construct: CHO derived CD73 (Trp27-Lys547), with a C-terminal 6-His tag; 6-His (C); purchased R&D 5795-EN; host or cells: CHO
T1 sequence (P21589 27-547): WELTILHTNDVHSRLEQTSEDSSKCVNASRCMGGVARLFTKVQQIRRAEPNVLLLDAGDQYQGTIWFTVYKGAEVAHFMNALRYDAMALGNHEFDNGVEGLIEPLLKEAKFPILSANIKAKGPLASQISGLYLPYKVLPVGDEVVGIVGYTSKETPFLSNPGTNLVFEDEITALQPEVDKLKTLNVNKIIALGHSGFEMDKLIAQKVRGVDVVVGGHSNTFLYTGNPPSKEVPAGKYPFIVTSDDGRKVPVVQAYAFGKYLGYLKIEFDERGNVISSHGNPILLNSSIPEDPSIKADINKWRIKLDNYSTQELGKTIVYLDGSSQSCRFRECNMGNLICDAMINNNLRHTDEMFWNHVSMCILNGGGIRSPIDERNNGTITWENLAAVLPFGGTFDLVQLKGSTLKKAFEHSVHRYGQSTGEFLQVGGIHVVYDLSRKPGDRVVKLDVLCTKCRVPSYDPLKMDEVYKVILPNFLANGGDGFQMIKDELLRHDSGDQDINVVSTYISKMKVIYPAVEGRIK
The assay can be described thus: CD73 Enzyme Assay. The settings on record: human CD73 0.5 nM, AMP 30 μM, PiColorLock phosphate detection; read-out: Potency (IC50, CD73 enzyme assay). In kind it is biochemical. From the text: Soluble recombinant CD73 catalyzes the conversion of adenosine monophosphate (AMP) to adenosine and inorganic phosphate. The phosphate detection reagent, PiColorLock™ (Innova Bioscience, Cat #303-0125) is based on the change in absorbance of the dye malachite green in the presence of inorganic phosphate (Pi) and this property can be exploited to measure any enzyme that generates Pi. Recombinant Human 5′-Nucleotidase (CD73) (R&D #5795-EN, CHO derived CD73 (Trp27-Lys547), with a C-terminal 6-His tag) was used in the enzymatic assay. This assay was run in a 384-well plate format (Corning® NBS™ 384 well plates, Cat #3640). The basic assay procedure involves two steps: 1) Enzyme reaction: The CD73 enzyme (R&D #5795-EN) is incubated in the presence or absence of compounds. AMP (sigma, cat #01930) is added to start the […] reaction. 2) Detection step: Gold mix is added to the assay system, then stabilizers are added. After incubation the absorbance of the solution is read at OD 635 nm. The recorded OD signal is proportional to the enzyme activity.
Briefly, 25 μl human CD73 (0.5 nM final concentration) in the enzymatic buffer solutions (20 mM Tris, 25 mM NaCl, 1 mM MgCl2, pH 7.5, 0.005% Tween-20) were mixed with various concentrations of the test compound (dissolved in 100% DMSO). These solutions were incubated for 15 min at 25° C., and subsequently 25 μl AMP (30 μM final concentration) was added to start the reaction. The final reaction mixture of enzyme-substrate-compound was incubated for 20 min at 37° C. Meanwhile ‘Gold mix’ was prepared shortly before use by adding 1/100 vol. of accelerator to the PiColorLock™ Gold reagent. 12 μL/well of the ‘Gold mix’ was added to assay plate containing 50 μL enzyme reaction buffer and incubated at 25° C. for 5 min. 5 μL/well stabilizer was added to the assay plate and incubated at 25° C. for 30 min. The absorbance of the well solutions was measured at 635 nm on a Spark 10M instrument (TECAN).
The percent (%) inhibition at each concentration of a compound was calculated relative to the OD value in the Max and Min control wells contained within each assay plate. The Max control wells contained enzyme and substrate as 0% inhibition, and the M control wells only contained substrate without enzyme as 100% inhibition. The concentrations and percent inhibition values for a test compound are plotted and the concentration of the compound required to achieve 50% inhibition (IC50) was determined with a four-parameter logistic dose response equation.

The target in assay [2] is T2, Cell surface CD73 of U87 MG human glioblastoma cells (Homo sapiens, UniProt P21589).
T2 construct: Cell surface CD73 catalyzes the conversion of adenosine monophosphate (AMP) to adenosine and inorganic phosphate; endogenous in cells; host or cells: U87 MG human glioblastoma cells
T2 sequence (P21589 27-549): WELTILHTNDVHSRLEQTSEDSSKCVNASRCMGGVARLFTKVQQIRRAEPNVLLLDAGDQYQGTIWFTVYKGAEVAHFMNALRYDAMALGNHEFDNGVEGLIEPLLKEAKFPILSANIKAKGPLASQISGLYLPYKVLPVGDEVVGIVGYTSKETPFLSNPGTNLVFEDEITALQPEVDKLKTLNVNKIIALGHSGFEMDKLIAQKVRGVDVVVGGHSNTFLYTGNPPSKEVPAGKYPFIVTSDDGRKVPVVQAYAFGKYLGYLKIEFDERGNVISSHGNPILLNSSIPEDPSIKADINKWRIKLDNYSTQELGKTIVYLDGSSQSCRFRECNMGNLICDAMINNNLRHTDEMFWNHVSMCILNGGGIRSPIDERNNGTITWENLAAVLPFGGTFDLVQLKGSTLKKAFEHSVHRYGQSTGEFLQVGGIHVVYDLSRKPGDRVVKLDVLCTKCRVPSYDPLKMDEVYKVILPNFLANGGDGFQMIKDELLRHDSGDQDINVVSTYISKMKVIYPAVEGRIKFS
The experiment in a line: CD73 Cellular Assay. In kind it is cell-based. To be noted: 5000 cells per well, 30 μM AMP substrate, read-out: Potency (IC50, CD73 cellular assay). As to the method:
Cell surface CD73 catalyzes the conversion of adenosine monophosphate (AMP) to adenosine and inorganic phosphate. U87 MG human glioblastoma cells express high level of CD73. Cells are treated with compounds in a 96-well assay plate and supernatants are collected into a 384-well detection plate. The concentration of inorganic phosphate (Pi) in the supernatants is determined using the phosphate detection reagent, PiColorLock™ (Innova Bioscience, Cat #303-0125) following the manufacturer's instructions.
Briefly, on the day of the assay, U87 MG cells were harvested and resuspended in assay buffer which consisted of 20 mM HEPES, pH=7.4, 137 mM NaCl, 5.4 mM KCl, 1.3 mM CaCl2, 4.2 mM NaHCO3 and 0.1% glucose. To test the effect of compounds on cellular CD73 enzymatic activity, 500 nL/well of compounds dissolved in DMSO were added to a 96-well TC-treated microplate (Corning #3599). Next, 80 μL/well of U87 MG cells in assay buffer were added to assay plate. After 30 minutes of incubation in an atmosphere of 5% CO2 at 37° C., 20 μL/well of 150 μM AMP (Adenosine 5′-monophosphate monohydrate, Sigma, Cat #01930) in assay buffer was added to assay plate. Final assay conditions consisted of 5000 cells per well in 0.5% DMSO and 30 μM AMP substrate. After 50 minutes of incubation in an atmosphere of 5% CO2 at 37° C., 50 μL/well of supernatant was transferred to the 384-well detection plate (Corning® NBS™ 384 well plates, Cat #3640). Meanwhile “Gold mix” was prepared shortly before use by adding 1/100 volume of accelerator to the PiColorLock™ Gold reagent. 12 μL/well of the “Gold mix” was added to detection plate containing 50 μL/well of supernatant and incubated at 25° C. for 5 minutes. 5 μL/well stabilizer was added to the detection plate and incubated at 25° C. for 30 minutes. The absorbance at 635 nm was measured on a Spark 10M instrument (TECAN). The percent (%) inhibition at each concentration of a compound was calculated relative to the OD value in the Max and Min control wells contained within each assay plate. The Max control wells contained cells and substrate as 0% inhibition, and the Min control wells only contained cells as 100% inhibition. The concentrations and percent inhibition values for a test compound are plotted and the concentration of a the compound required to achieve 50% inhibition (IC50) was determined with a four-parameter logistic dose response equation.

As for `O=P(O)(O)CP(=O)(O)OC[C@H]1O[C@@H](c2cnc3c(NC4CCCC4)ncnn23)[C@H](O)[C@@H]1O` [Compound 1, (((((2R,3S,4R,5S)-5-(4-(cyclopentylamino)imidazo[2,1-f][1,2,4]triazin-7-yl)-3,4-dihydroxytetrahydrofuran-2-yl)methoxyxhydroxy)phosphoryl)methyl)phosphonic acid], the IC50 in assay [1] was less than 10 nM; in assay [2], less than 1 nM.
Regarding `O=P(O)(O)CP(=O)(O)OC[C@H]1O[C@@H](c2cnc3c(NCc4ccccc4)ncnn23)[C@H](O)[C@@H]1O` [Compound 2, (((((2R,3S,4R,1S)-5-(4-(benzylamino)imidazo[2,1-f][1,2,4]triazin-7-yl)-3,4-dihydroxytetrahydrofuran-2-yl)methoxy)(hydroxy)phosphoryl)methyl)phosphonic Acid], the IC50 in assay [1] was in the range of 10 to 99 nM; in assay [2], 1 to 9.9 nM.
On to `O=P(O)(O)CP(=O)(O)OC[C@H]1O[C@@H](c2cnc3c(NC4CCCC4)nc(Cl)nn23)[C@H](O)[C@@H]1O` [Compound 5, (((((2R,3S,4R,1S)-5-(2-chloro-4-(cyclopentylamino)imidazo[2,1-f][1,2,4]triazin-7-yl)-3,4-dihydroxytetrahydrofuran-2-yl)methoxy)(hydroxy)phosphoryl)methyl)phosphonic acid], for which the figures for the IC50 in assay [1] and in assay [2] were less than 10 nM and less than 1 nM, respectively.
For the molecule `O=P(O)(O)CP(=O)(O)OC[C@H]1O[C@@H](c2cnc3c(NCc4ccccc4)nc(Cl)nn23)[C@H](O)[C@@H]1O` [Compound 6, (((((2R,3S,4R,1S)-5-(4-(benzylamino)-2-chloroimidazo[2,1-f][1,2,4]triazin-7-yl)-3,4-dihydroxytetrahydrofuran-2-yl)methoxy)(hydroxy)phosphoryl)methyl)phosphonic Acid], the IC50 in assay [1] was less than 10 nM; in assay [2], less than 1 nM.
On to `CN(c1nc(Cl)nn2c([C@@H]3O[C@H](COP(=O)(O)CP(=O)(O)O)[C@@H](O)[C@H]3O)cnc12)C1CCCC1` [Compound 8, (((((2R,3S,4R,1S)-5-(2-chloro-4-(cyclopentyl(methyl)amino)imidazo[2,1-f][1,2,4]triazin-7-yl)-3,4-dihydroxytetrahydrofuran-2-yl)methoxy)(hydroxy)phosphoryl)methyl)phosphonic acid], for which the 50% inhibitory concentration (IC50) is less than 10 nM in assay [1] and less than 1 nM in assay [2].
In the case of `O=P(O)(O)CP(=O)(O)OC[C@H]1O[C@@H](c2cnc3c(NC4CCc5ccccc54)nc(Cl)nn23)[C@H](O)[C@@H]1O` (stereo partly drawn) [Compound 9, (((((2R,3S,4R,1S)-5-(2-chloro-4-((2,3-dihydro-1H-inden-1-yl)amino)imidazo[2,1-f][1,2,4]triazin-7-yl)-3,4-dihydroxytetrahydrofuran-2-yl)methoxy)(hydroxy)phosphoryl)methy)phosphonic acid], the figures for the half-inhibitory concentration (IC50) in assay [1] and in assay [2] were less than 10 nM and less than 1 nM, respectively.
Consider `O=P(O)(O)CP(=O)(O)OC[C@H]1O[C@@H](c2cnc3c(N4CC5CCCC5C4)nc(Cl)nn23)[C@H](O)[C@@H]1O` (stereo partly drawn) [Compound 10, (((((2R,3S,4R,1S)-5-(2-chloro-4-(hexahydrocyclopenta[c]pyrrol-2(1H)-yl)imidazo[2,1-f][1,2,4]triazin-7-yl)-3,4-dihydroxytetrahydrofuran-2-yl)methoxy)(hydroxy)phosphoryl)methy)phosphonic acid], for which the concentration for half-maximal inhibition (IC50) in assay [1] is less than 10 nM; in assay [2], less than 1 nM.
For the molecule `O=P(O)(O)CP(=O)(O)OC[C@H]1O[C@@H](c2cnc3c(NCc4ccccc4Cl)nc(Cl)nn23)[C@H](O)[C@@H]1O` [Compound 11, [({[(2R,3S,4R,5S)-5-(2-chloro-4-{[(2-chlorophenyl)methyl]amino}imidazo[2,1-f][1,2,4]triazin-7-yl)-3,4-dihydroxyoxolan-2-yl]methoxy}(hydroxy)phosphoryl)methyl]phosphonic acid], the IC50 in assay [1] is less than 10 nM; in assay [2] it was less than 1 nM.
Consider `O=P(O)(O)CP(=O)(O)OC[C@H]1O[C@@H](c2cnc3c(NCC4CCOC4)nc(Cl)nn23)[C@H](O)[C@@H]1O` (stereo partly drawn) [Compound 12, (((((2R,3S,4R,1S)-5-(2-chloro-4-(((tetrahydrofuran-3-yl)methyl)amino)imidazo[2,1-f][1,2,4]triazin-7-yl)-3,4-dihydroxytetrahydrofuran-2-yl)methoxy)(hydroxy)phosphoryl)methyl) phosphonic Acid], for which the values for the IC50 in assay [1] and in assay [2] were less than 10 nM and less than 1 nM, respectively.
`O=P(O)(O)CP(=O)(O)OC[C@H]1O[C@@H](c2cnc3c(NC4CCOC4)nc(Cl)nn23)[C@H](O)[C@@H]1O` (stereo partly drawn) [Compound 14, [({[(2R,3S,4R,5S)-5-[2-chloro-4-(oxolan-3-ylamino)imidazo[2,1-f][1,2,4]triazin-7-yl]-3,4-dihydroxyoxolan-2-yl]methoxy}(hydroxy)phosphoryl)methyl]phosphonic acid]: the IC50 in assay [1] was less than 10 nM; in assay [2], less than 1 nM.

The term IC50 denotes the midpoint of a concentration-inhibition curve.
